Experimental findings from PubChem BioAssay (NCI) are described below.

The structures appear in SMILES notation.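 Method: 48-hour compound exposure of cells in 96-well plates, five concentrations, linear interpolation of endpoints. The concentration for full growth arrest is given as TGI.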

Among the test systems are CAKI-1 renal; CCRF-CEM leukemia; EKVX NSCLC; HCT-116 colon; HOP-62 NSCLC; LOX IMVI melanoma; MCF7 breast; MDA-MB-231 breast; MDA-N; MOLT-4 leukemia; OVCAR-3 ovarian; SN12C renal; SR leukemia; TK-10 renal; U251 CNS; UACC-257 melanoma; SK-OV-3 ovarian; NCI/ADR-RES ovarian.
Experiment in all cases: inhibition of tumour cell growth, NCI panel, 48 h

As to `COc1ccc(/C=C2\C(=O)N(C)C(=O)c3cc(OC)c(OC)cc32)cc1OC`, the TGI was > 100 µM in the assay with CAKI-1 renal; 69.7 µM in the assay with CCRF-CEM leukemia; 27.9 µM in the assay with EKVX NSCLC; > 100 µM with HCT-116 colon; 90 µM in the assay with HOP-62 NSCLC; 34.1 µM in the assay with LOX IMVI melanoma. For the same compound, the TGI in the assay with MCF7 breast is > 100 µM; in the assay on MDA-MB-231 breast, > 100 µM; with MDA-N, 75.2 µM; in the assay with MOLT-4 leukemia, > 100 µM; with OVCAR-3 ovarian, > 100 µM; with SN12C renal it was > 100 µM. Besides, the TGI was 55.5 µM in the assay with SR leukemia, > 100 µM with TK-10 renal, > 100 µM in the assay on U251 CNS and > 100 µM in the assay with UACC-257 melanoma.
With `Cc1ccc(S(=O)(=O)n2c3c(c4ccccc42)CCN2C(=O)C(S(=O)(=O)c4ccccc4)=CCC32)cc1` (stereo not given), the TGI with CAKI-1 renal was 0.872 µM; in the assay on HOP-62 NSCLC it was 0.562 µM; in the assay with LOX IMVI melanoma it was 0.452 µM; in the assay with MCF7 breast, 0.656 µM; in the assay with MDA-MB-231 breast, 0.409 µM; with MDA-N, 0.378 µM. For the same compound, the TGI with OVCAR-3 ovarian turned out to be 0.332 µM; in the assay on SK-OV-3 ovarian, 2.61 µM; in the assay with SN12C renal, 0.434 µM; in the assay on SR leukemia it was 0.635 µM; in the assay with TK-10 renal it was 0.282 µM; in the assay on U251 CNS, 0.404 µM. In the assay on UACC-257 melanoma, this compound showed a TGI of 0.319 µM.
As to `CN(C)Cc1cc(N=Nc2cccc(Cl)c2)ccc1O`, the TGI in the assay with CAKI-1 renal is 61.1 µM; in the assay with CCRF-CEM leukemia, 36.3 µM; in the assay with HCT-116 colon it was 52 µM; in the assay on HOP-62 NSCLC, 22.9 µM; with LOX IMVI melanoma, 16.6 µM; in the assay with MCF7 breast it was 29 µM. Moreover, the TGI in the assay with MDA-MB-231 breast came to 36.7 µM; in the assay with MDA-N it was 23.9 µM; in the assay with MOLT-4 leukemia, 32.5 µM; with NCI/ADR-RES ovarian, 22.4 µM; in the assay on OVCAR-3 ovarian, 28.9 µM; with SK-OV-3 ovarian, 37.9 µM. The TGI in the assay on SN12C renal is 95.3 µM; in the assay on SR leukemia, 54.5 µM; with TK-10 renal it was 23.2 µM; with U251 CNS, 33.1 µM; with UACC-257 melanoma, 29.3 µM.
`COC(=O)C1=C(C(=O)OC)C(Cc2ccccc2)(OO)OC1=O` (stereo not given): the TGI in the assay on CAKI-1 renal is 19.4 µM; in the assay on CCRF-CEM leukemia, 6.69 µM; in the assay on EKVX NSCLC it was 37.3 µM; in the assay on HCT-116 colon it was > 100 µM; in the assay on LOX IMVI melanoma, 22.8 µM; in the assay with MCF7 breast it was 53.9 µM. Besides, the TGI is > 100 µM with MDA-MB-231 breast; > 100 µM in the assay with MDA-N; 30.8 µM in the assay on MOLT-4 leukemia; > 100 µM in the assay with NCI/ADR-RES ovarian; 19.7 µM in the assay on OVCAR-3 ovarian; 94.4 µM in the assay on SK-OV-3 ovarian. For the same compound, the TGI in the assay with SN12C renal is 98 µM; in the assay with SR leukemia, > 100 µM; in the assay with TK-10 renal, 15 µM; with U251 CNS, 67.9 µM; with UACC-257 melanoma it was > 100 µM.
Consider `O=S(=O)(O)CCCC1S(=O)(=O)OCCOS1(=O)=O`, for which the TGI in the assay on CAKI-1 renal, with EKVX NSCLC, with HCT-116 colon, in the assay with HOP-62 NSCLC, with LOX IMVI melanoma and with MCF7 breast was > 100 µM in each case. The TGI in the assay on MDA-MB-231 breast, with MDA-N, with NCI/ADR-RES ovarian, in the assay on OVCAR-3 ovarian, in the assay with SK-OV-3 ovarian and with SR leukemia was > 100 µM each time. Also, the TGI with TK-10 renal, in the assay on U251 CNS and in the assay with UACC-257 melanoma was > 100 µM in each case.
Regarding `COc1cc2c(c(O)c1OC)C(O)C1CCC(=O)N1C2c1cccc2ccccc12` (stereo not given), the TGI in the assay on CAKI-1 renal, in the assay with CCRF-CEM leukemia, in the assay with EKVX NSCLC, with HCT-116 colon, with HOP-62 NSCLC and in the assay on MCF7 breast was > 100 µM throughout. The TGI in the assay on MDA-MB-231 breast, in the assay on MDA-N, with MOLT-4 leukemia, in the assay with NCI/ADR-RES ovarian, with OVCAR-3 ovarian and in the assay on SK-OV-3 ovarian was > 100 µM in each case. The TGI in the assay on SN12C renal, in the assay on SR leukemia, in the assay with U251 CNS and in the assay with UACC-257 melanoma was > 100 µM in each case.
On to `COc1cc(OC)cc(OCc2ccc3nc(-c4ccccc4)c(Cl)nc3c2)c1`, for which the TGI with CAKI-1 renal is 28.1 µM; with CCRF-CEM leukemia it was > 100 µM; with EKVX NSCLC, > 100 µM; in the assay on HCT-116 colon it was > 100 µM; in the assay on HOP-62 NSCLC, 33.8 µM; in the assay on LOX IMVI melanoma, > 100 µM. Also, the TGI in the assay on MCF7 breast was > 100 µM; with MDA-MB-231 breast, 30.5 µM; in the assay with MDA-N, > 100 µM; in the assay with MOLT-4 leukemia it was 74.1 µM; with NCI/ADR-RES ovarian, 67.8 µM; with OVCAR-3 ovarian, > 100 µM. For the same compound, the TGI was > 100 µM in the assay on SN12C renal; 48 µM with SR leukemia; 55.6 µM with TK-10 renal; 59.9 µM in the assay with U251 CNS; > 100 µM in the assay on UACC-257 melanoma.
Take `Cc1n[nH]c(=O)n1C1CCCC1`: the TGI in the assay with CAKI-1 renal, in the assay with CCRF-CEM leukemia, in the assay with EKVX NSCLC, in the assay with HCT-116 colon, with HOP-62 NSCLC and with LOX IMVI melanoma was > 100 µM each time. In addition, the TGI with MCF7 breast, in the assay on MDA-MB-231 breast, in the assay on MDA-N, in the assay with MOLT-4 leukemia, in the assay on NCI/ADR-RES ovarian and in the assay on OVCAR-3 ovarian was > 100 µM each time. The TGI with SN12C renal, in the assay on SR leukemia, in the assay with TK-10 renal, in the assay on U251 CNS and in the assay with UACC-257 melanoma was > 100 µM in each case.
Consider `Cc1ccc(Cc2n[nH]c(=O)n2-c2ccccc2)cc1`, for which the TGI in the assay with CAKI-1 renal, in the assay with HCT-116 colon, in the assay with MCF7 breast, with MDA-MB-231 breast, in the assay on MDA-N and with MOLT-4 leukemia was > 100 µM each time. Further, the TGI in the assay on NCI/ADR-RES ovarian, in the assay on SN12C renal, with SR leukemia, in the assay on TK-10 renal, with U251 CNS and in the assay with UACC-257 melanoma was > 100 µM each time.
